The text below walks through data of patent US20250011316A1, “PEROXIREDOXIN 3 INHIBITORS AND METHODS OF USE FOR TREATING CANCER” (Wake Forest University Health Sciences, priority 2022, published 2025).

Where a name gives a salt, the structure may show the parent alone.

Series [1] can be described thus: FIG. 5 (CON’T). Here is the method:
(§1) Table printed on a drawing sheet, FIG. 5 (CON’T)
(§2) The patent's description of the figure: FIG. 5 is a table summarizing the results of Examples 42-44 for various compounds described herein. NT indicates “not tested.” For EC50 values, “A” represents an EC50 less than or equal to 5.0 μM, “B” represents an EC50 from 5.1 μM to 10.0 μM, “C” represents an EC50 from 10.1 μM to 50.0 μM, and “D” represents an EC50 greater than 50.0 μM.

Series [2] is described as follows: FIG. 5 (CON’T). Here is the method: as §1, §2
First reader's note: Continued from an earlier sheet of FIG. 5; the EC50 classes A-D and NT are not explained on this sheet but only in the patent's figure description.
This is another data set of the same source.

Series [3] in a line: Behaviour of compounds in DMSO and complete tissue culture media (HMESO cell viability assay, FIG. 1). The format is physicochemical. Conditions: from DMSO solution. Here is the method: FIG. 1: Cell viability assay data in Malignant Mesothelioma (MM) cells (HMESO cell line) treated with compound (1)—HCl or (5)—HCl N=2 technical and 2 biological replicates conducted by 2 different lab technicians. All compounds went into solution in 100% DMSO. (5)—HCl precipitated at concentrations of ˜20-80 μM when added to complete tissue culture media.

A further series relates to HMESO mesothelioma cells. In words: Cell viability study (crystal violet, 48 h). The format is cell-based. As to conditions: Homo sapiens, 48 h incubation, read-out: IC50 (Concentration of drug required to kill 50% of cells). Here is the method:
Cell Lines were plated in 96-well plates (Corning, Kennebunk, ME, USA) at a density of 2500 cells per well. The following day, cells were treated with test compounds diluted in complete media followed by incubation for 48 h. Post-incubation cells were washed with PBS (Corning Cellgro, Manassas, VA, USA), fixed with 3.0% formaldehyde (Fisher BioReagents, Fair Lawn, NJ, USA) in PBS, and stained for 30 min with 0.1% crystal violet (Acros Organics, Fair Lawn, NJ, USA) in water. Crystal violet stain was removed, and plates were washed with FEO and allowed to dry. To quantify cell viability, plates were imaged using the Lionheart Plate reader (BioTek Instruments, Winooski, VT, USA) and/or analyzed by absorbance at 540 nm (crystal violet dye dissolved in 100% methanol) using the Synergy HTX plate reader (BioTek Instruments, Winooski, VT, USA). To determine the effective cytotoxic concentration (ICso) of test compounds, the data were plotted using a 4-parameter non-linear regression model using GraphPad Prism7 software (GraphPad Software, San Diego, CA, USA).
Cell viability assay data in HMESO mesothelioma cells treated with compounds (1)—HCl or (5) HCl are summarized in the below Table 2. ICso (Concentration of drug required to kill 50% f cells) is shown in […] concentration

Series [4] can be described thus: FIG. 5 (CON'T). The method, then: (§3) Table printed on a drawing sheet, FIG. 5 (CON'T)
as §2
First reader's note: Continued from an earlier sheet of FIG. 5; EC50 is given as classes A-C, and neither these classes nor NT are explained on this sheet.

Series [5] in a line: FIG. 5 (CON'T). Here is the method: as §3, §2
First reader's note: Continued from the sheet before: the first body row is the end of a record begun there; EC50 is given as classes A-D whose legend is not printed on this sheet.
The source holds these as a separate data set.

Another series has as its system 578 cancer cells lines. As to conditions: of 578 cancer cells lines tested; Corsello et al. Nature Cancer 2020; cited from earlier work.

In the case of `C=C(NC(=O)c1csc(N2CCC(C(=O)NCCCOC)CC2)n1)C(=O)NC(=C)C(=O)OC` [compound 61], the “Time into solution from powder?” value in the series “FIG. 5 (CON’T) [1]” was 1 to 2 min. Take `C=C(NC(=O)c1csc(N2CCN(CCCOC)C(=O)C2)n1)C(=O)NC(=C)C(=O)OC` [compound 63]: in “FIG. 5 (CON’T) [2]”, the “Time into solution from powder?” value fell in the range of 1 to 2 min. Take `C=C(NC(=O)c1csc(-c2ccc(N)cc2)n1)C(=O)NC(=C)C(=O)OC` [(5)—HCl, Methyl 2-(2-(2-(4-aminophenyl)thiazole-4-carboxamido)acrylamido)acrylate hydrochloride]: the “concentrations at which compound precipitated when added to complete tissue culture media” value in series [3] lay in the range of 20 to 80 µM. For the same compound, the IC50 with HMESO mesothelioma cells was 1930 nM. For `C=C(NC(=O)c1ccc(-c2ccc(NC(=O)OC(C)(C)C)cc2)cc1)C(=O)NC(=C)C(=O)OC` [compound 69], in “FIG. 5 (CON'T) [4]”, the “Time into solution from powder?” value was in the range of 1 to 2 min. As for `C=C(NC(=O)c1csc(N2C[C@@H](C)N(C(=O)OC(C)(C)C)[C@@H](C)C2)n1)C(=O)NC(=C)C(=O)OC` [compound 56], the “Time into solution from powder?” value in the series “FIG. 5 (CON'T) [5]” was in the range of 1 to 2 min. `C=C(NC(=O)C(=C)NC(=O)c1csc(C2=N[C@@H]3c4csc(n4)[C@H]4NC(=O)c5csc(n5)[C@H]([C@](C)(O)[C@@H](C)O)NC(=O)[C@H]5CSC(=N5)/C(=C/C)NC(=O)[C@H]([C@@H](C)O)NC(=O)c5csc(n5)[C@]3(CC2)NC(=O)[C@H](C)NC(=O)C(=C)NC(=O)[C@H](C)NC(=O)[C@H]([C@@H](C)CC)N[C@@H]2C=Cc3c([C@H](C)O)cc(nc3[C@H]2O)C(=O)O[C@@H]4C)n1)C(N)=O` [Thiostrepton, thiostrepton]: the “number of tumor cells lines in which meaningful efficacy was shown” value with 578 cancer cells lines is reported as 403.
